{
  "source": "paper PMC4356640",
  "about": "(Pharmacogenetics and genomics, 2015)",
  "key": {"[1]": {"assay": "Tamoxifen and metabolite steady state plasma concentrations", "settings": "for pharmacokinetics differ by CYP2D6 genotype: 3 and 6 month visits; for 3m or 6m steady state concentrations correlated with age: p-values > 0.11"}, "CYP2D6 enzyme activity": {"system": "CYP2D6 enzyme activity", "assay": "13C-dextromethorphan breath test", "format": "in vivo, human"}},
  "data": [
    {"smiles": "CC/C(=C(\\c1ccc(O)cc1)c1ccc(OCCN(C)C)cc1)c1ccccc1", "note": "[4HT, 4-hydroxytamoxifen]", "values": [
      {"measurement": "pharmacokinetics differ by CYP2D6 genotype", "setting": "[1]", "value": "Neither tamoxifen, NDMT, or 4HT pharmacokinetics were found to differ by CYP2D6 genotype"},
      {"measurement": "3m or 6m steady state concentrations correlated with age", "setting": "[1]", "value": "no evidence"}
    ]},
    {"smiles": "COc1ccc2c(c1)[C@]13CCCC[C@@H]1[C@H](C2)N(C)CC3", "note": "[DM, Dextromethorphan]", "values": [
      {"measurement": "correlation (r) of baseline DM-BT values with CYP2D6 genotype", "setting": "CYP2D6 enzyme activity; Spearman, p < 0.0001, n=77", "value": 0.55},
      {"measurement": "correlation (r) of 6m DM-BT values with CYP2D6 genotype", "setting": "CYP2D6 enzyme activity; Spearman, p < 0.001, n=55", "value": 0.55},
      {"measurement": "correlation (r) of 3m DM-BT values with CYP2D6 genotype", "setting": "CYP2D6 enzyme activity; Spearman, p< 0.0001, n=60", "value": 0.58}
    ]},
    {"smiles": "CC/C(=C(\\c1ccc(O)cc1)c1ccc(OCCNC)cc1)c1ccccc1", "note": "[Endx, endoxifen]", "values": [
      {"measurement": "correlation (r) of CYP2D6 genotype with 3m Endx Css", "setting": "[1]; Spearman, p < 0.0001, n=57", "value": 0.47},
      {"measurement": "correlation (r) of CYP2D6 genotype with 3m Endx/NDMT ratio", "setting": "[1]; Spearman, p < 0.0001, n=57", "value": 0.60},
      {"measurement": "correlation (r) of CYP2D6 genotype with 6m Endx/NDMT ratio", "setting": "[1]; Spearman, p<0.0001, n=54", "value": 0.61},
      {"measurement": "correlation (r) of CYP2D6 genotype with 6 month Endx Css", "setting": "[1]; Spearman, p<0.0001, n=54", "value": 0.56},
      {"measurement": "concentrations of endoxifen, fold lower than that of Lien et al", "setting": "[1]; comparison with ref 14", "value": "~8", "unit": "fold"},
      {"measurement": "concentration at 3 months", "setting": "[1]; human, plasma, oral, 20 mg daily, Median Endx concentration (range), Endx Css, 3 months, CYP2D6 PM/PM, activity score 0, n=2", "value": 5.5, "unit": "nM"},
      {"measurement": "concentration at 6 months", "setting": "[1]; human, plasma, oral, 20 mg daily, Median Endx concentration (range), Endx Css, 6 months, CYP2D6 PM/PM, activity score 0, n=2", "value": 6.7, "unit": "nM"},
      {"measurement": "3m or 6m steady state concentrations correlated with age", "setting": "[1]", "value": "no evidence"}
    ]},
    {"smiles": "CC/C(=C(\\c1ccccc1)c1ccc(OCCNC)cc1)c1ccccc1", "note": "[NDMT, N-desmethyltamoxifen]", "values": [
      {"measurement": "pharmacokinetics differ by CYP2D6 genotype", "setting": "[1]", "value": "Neither tamoxifen, NDMT, or 4HT pharmacokinetics were found to differ by CYP2D6 genotype"},
      {"measurement": "3m or 6m steady state concentrations correlated with age", "setting": "[1]", "value": "no evidence"}
    ]},
    {"smiles": "Fc1ccc([C@@H]2CCNC[C@H]2COc2ccc3c(c2)OCO3)cc1", "note": "[paroxetine]", "values": [
      {"measurement": "baseline DOB30 values lower than at 3 and 6 month visits after paroxetine was discontinued", "setting": "CYP2D6 enzyme activity; one patient who took paroxetine prior to the baseline visit", "value": "> 50", "unit": "%"}
    ]},
    {"smiles": "CC/C(=C(\\c1ccccc1)c1ccc(OCCN(C)C)cc1)c1ccccc1", "note": "[tamoxifen, Tamoxifen, reference compound]", "values": [
      {"measurement": "3m or 6m steady state concentrations correlated with age", "setting": "[1]", "value": "no evidence"}
    ]}
  ]
}
